In patent publication US11000033B2, “Ketone or oxime compound, and herbicide” (NISSAN CHEMICAL CORPORATION, priority 2014, dated 2021):

Key:
Assay type in all cases: in vivo
Avena fatua = assay: Test Example 4: herbicidal effect by soil treatment (symbol I)
Method in brief: (§1)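 Seeds were sown in sterilized diluvial soil, covered with about 1.5 cm of soil, and the soil surface was sprayed with a water-diluted emulsion of the compound at a predetermined rate. Plants grew in a greenhouse at 25° C. to 30° C.; effects were scored visually 3 weeks after application.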

[1] = test system: Echinochloa crus-galli var. crus-galli; assay: Test Example 5: herbicidal effect by foliage application, plastic box (symbol H); conditions: 320 g/ha, 3 weeks after application
Method in brief: (§2)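 Herbicide, formulated as an emulsion and diluted in water, is sprayed onto the aerial parts of 14-day seedlings. These were grown at 25° C. to 30° C. in sterilized diluvial soil; effects are graded after 3 weeks.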

Chenopodium album [2] = assay: Test Example 4: herbicidal effect by soil treatment (symbol O)
Method in brief: as §1

wheat = assay: Test Example 4: effect on crop by soil treatment (symbol e); conditions: for e: wheat, effect on crop grade: application herbicide amount 320 g/ha; for e: wheat, effect grade on crop: 320 g/ha
Method in brief: (§3)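 Plants are raised in a greenhouse (25° C. to 30° C.) from spot-sown seed, which sits under about 1.5 cm of sterilized diluvial soil in a box shared with weed species.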

[3] = test system: Echinochloa crus-galli var. crus-galli; assay: Test Example 3: herbicidal effect by foliage application, Wagner pot (symbol H); conditions: application herbicide amount 320 g/ha
Method in brief: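 Herbicidal activity was rated three weeks after a foliar spray of diluted emulsion concentrate, applied at a predetermined dose to plants grown for 14 days from seed in waterlogged alluvial soil within a 25–30 °C greenhouse.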

Amaranthus retroflexus [4] = assay: Test Example 4: herbicidal effect by soil treatment (symbol N)
Method in brief: as §1

Galium spurium = assay: Test Example 5: herbicidal effect by foliage application, plastic box (symbol Q); conditions: 320 g/ha, 3 weeks after application
Method in brief: as §2

soybean [5] = assay: Test Example 5: effect on crop by foliage application, plastic box (symbol d); conditions: 320 g/ha, 3 weeks after application
Method in brief: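 Soil: sterilized diluvial. Container: plastic box, 21 × 13 cm, 7 cm deep. Sowing: spot-like, ~1.5 cm cover. Growth: greenhouse, 25° C. to 30° C.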

Monochoria vaginalis = assay: Test Example 1: herbicidal activity, application before weed generation in submerged conditions (symbol C); conditions: application herbicide amount 320 g/ha
Method in brief: (§4)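 Weed control was rated three weeks after treatment on a 0–5 scale, from 5% or lower up to 90% or more. Pre-emergence water-surface application of diluted emulsion at a predetermined rate was made on the day of sowing, in flooded (4 cm water) pots containing rice seedlings, kept at 25–30 °C under glass.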

soybean [6] = assay: Test Example 4: effect on crop by soil treatment (symbol d); conditions: for d: soybean, effect on crop grade: application herbicide amount 320 g/ha; for d: soybean, effect grade on crop: 320 g/ha
Method in brief: as §3

Apera spica-venti = assay: Test Example 4: herbicidal effect by soil treatment (symbol L)
Method in brief: as §1

Abutilon theophrasti = assay: Test Example 5: herbicidal effect by foliage application, plastic box (symbol M); conditions: 320 g/ha, 3 weeks after application
Method in brief: as §2

Setaria viridis [7] = assay: Test Example 5: herbicidal effect by foliage application, plastic box (symbol G); conditions: 320 g/ha, 3 weeks after application
Method in brief: as §2

Scirpus juncoides = assay: Test Example 1: herbicidal activity, application before weed generation in submerged conditions (symbol B); conditions: application herbicide amount 320 g/ha
Method in brief: as §4

Setaria viridis [8] = assay: Test Example 4: herbicidal effect by soil treatment (symbol G)
Method in brief: as §1

beet = assay: Test Example 4: effect on crop by soil treatment (symbol f); conditions: for f: beet, effect on crop grade: application herbicide amount 320 g/ha; for f: beet, effect grade on crop: 320 g/ha
Method in brief: as §3

Chenopodium album [9] = assay: Test Example 5: herbicidal effect by foliage application, plastic box (symbol O); conditions: 320 g/ha, 3 weeks after application
Method in brief: as §2

Lolium multiflorum Lam. = assay: Test Example 4: herbicidal effect by soil treatment (symbol K)
Method in brief: as §1

Amaranthus retroflexus [10] = assay: Test Example 5: herbicidal effect by foliage application, plastic box (symbol N); conditions: 320 g/ha, 3 weeks after application
Method in brief: as §2

[11] = application herbicide amount 320 g/ha

Row | SMILES | I: Avena fatua, herbicidal effect grade (Avena fatua; [11]) | H: Echinochloa crus-galli var. crus-galli, herbicidal effect grade [1] | O: Chenopodium album, herbicidal effect grade (Chenopodium album [2]; [11]) | e: wheat, effect on crop grade (wheat) | herbicidal effect on H (Echinochloa crus-galli var. crus-galli), grade 0-5 [3] | N: Amaranthus retroflexus, herbicidal effect grade (Amaranthus retroflexus [4]; [11]) | Q: Galium spurium, herbicidal effect grade (Galium spurium) | d: soybean, effect on crop grade (soybean [5]) | Herbicidal effect grade, C: Monochoria vaginalis (Monochoria vaginalis) | d: soybean, effect on crop grade (soybean [6]) | L: Apera spica-venti, herbicidal effect grade (Apera spica-venti; [11]) | M: Abutilon theophrasti, herbicidal effect grade (Abutilon theophrasti) | G: Setaria viridis, herbicidal effect grade (Setaria viridis [7]) | Herbicidal effect grade, B: Scirpus juncoides (Scirpus juncoides) | G: Setaria viridis, herbicidal effect grade (Setaria viridis [8]; [11]) | f: beet, effect on crop grade (beet) | O: Chenopodium album, herbicidal effect grade (Chenopodium album [9]) | K: Lolium multiflorum Lam., herbicidal effect grade (Lolium multiflorum Lam.; [11]) | N: Amaranthus retroflexus, herbicidal effect grade (Amaranthus retroflexus [10]) | I: Avena fatua, herbicidal effect grade (Avena fatua; 320 g/ha) | further results
1 | CCOC(=O)C(C(=O)CC1CC1)C1CC(O)=C(c2c(C)cc(C)cc2C)C1=O (stereo not shown) [2-025] | 0 (Herbicidal ratio of 5% or lower (almost no effect)) | 4 (Herbicidal ratio of 70% or higher and lower than 90%) | 0 (Herbicidal ratio of 5% or lower (almost no effect)) | 0 (Herbicidal ratio of 5% or lower (almost no effect)) | 3 (Herbicidal ratio of 40% or higher and lower than 70%) | 0 (Herbicidal ratio of 5% or lower (almost no effect)) | 0 (Herbicidal ratio of 5% or lower (almost no effect)) | 0 (Herbicidal ratio of 5% or lower (almost no effect)) | 0 (Herbicidal ratio of 5% or lower (almost no effect)) | 0 (Herbicidal ratio of 5% or lower (almost no effect)) | 0 (Herbicidal ratio of 5% or lower (almost no effect)) | 0 (Herbicidal ratio of 5% or lower (almost no effect)) | 5 (Herbicidal ratio of 90% or more (almost completely withered)) | 0 (Herbicidal ratio of 5% or lower (almost no effect)) | 5 (Herbicidal ratio of 90% or more (almost completely withered)) | 0 (Herbicidal ratio of 5% or lower (almost no effect)) | 0 (Herbicidal ratio of 5% or lower (almost no effect)) | 4 (Herbicidal ratio of 70% or higher and lower than 90%) | 0 (Herbicidal ratio of 5% or lower (almost no effect)) |  | 
2 | COCCOC(=O)OC1=C(c2c(C)cc(C)cc2C)C(=O)C(CC(C)=NOC)C1 (stereo not shown) [1-147] |  |  |  |  | 5 (Herbicidal ratio of 90% or more (almost completely withered)) |  |  |  | 1 (Herbicidal ratio of 5% or higher and lower than 20%) |  |  |  |  | 5 (Herbicidal ratio of 90% or more (almost completely withered)) |  |  |  |  |  | 5 (Herbicidal ratio of 90% or more (almost completely withered)) | H: Echinochloa crus-galli var. crus-galli, herbicidal effect (criteria 0-5) [1]: 5 (Herbicidal ratio of 90% or more (almost completely withered)); O: Chenopodium album, herbicidal effect grade (Chenopodium album [2]; 320 g/ha): 0 (Herbicidal ratio of 5% or lower (almost no effect)); e: wheat, effect grade on crop (wheat): 5 (Herbicidal ratio of 90% or more (almost completely withered)); N: Amaranthus retroflexus, herbicidal effect grade (Amaranthus retroflexus [4]; 320 g/ha): 5 (Herbicidal ratio of 90% or more (almost completely withered)); Q: Galium spurium, herbicidal effect (criteria 0-5) (Galium spurium): 4 (Herbicidal ratio of 70% or higher and lower than 90%); d: soybean, effect on crop (criteria 0-5) (soybean [5]): 3 (Herbicidal ratio of 40% or higher and lower than 70%); d: soybean, effect grade on crop (soybean [6]): 0 (Herbicidal ratio of 5% or lower (almost no effect)); L: Apera spica-venti, herbicidal effect grade (Apera spica-venti; 320 g/ha): 5 (Herbicidal ratio of 90% or more (almost completely withered)); M: Abutilon theophrasti, herbicidal effect (criteria 0-5) (Abutilon theophrasti): 4 (Herbicidal ratio of 70% or higher and lower than 90%); G: Setaria viridis, herbicidal effect (criteria 0-5) (Setaria viridis [7]): 5 (Herbicidal ratio of 90% or more (almost completely withered)); G: Setaria viridis, herbicidal effect grade (Setaria viridis [8]; 320 g/ha): 5 (Herbicidal ratio of 90% or more (almost completely withered)); f: beet, effect grade on crop (beet): 0 (Herbicidal ratio of 5% or lower (almost no effect)); O: Chenopodium album, herbicidal effect (criteria 0-5) (Chenopodium album [9]): 1 (Herbicidal ratio of 5% or higher and lower than 20%); K: Lolium multiflorum Lam., herbicidal effect grade (Lolium multiflorum Lam.; 320 g/ha): 5 (Herbicidal ratio of 90% or more (almost completely withered)); N: Amaranthus retroflexus, herbicidal effect (criteria 0-5) (Amaranthus retroflexus [10]): 1 (Herbicidal ratio of 5% or higher and lower than 20%)
3 | CON=C(C)CC1CC(OC(=O)c2ccccc2C(F)(F)F)=C(c2c(C)cc(C)cc2C)C1=O (stereo not shown) [1-154] |  |  |  |  | 5 (Herbicidal ratio of 90% or more (almost completely withered)) |  |  |  | 2 (Herbicidal ratio of 20% or higher and lower than 40%) |  |  |  |  | 4 (Herbicidal ratio of 70% or higher and lower than 90%) |  |  |  |  |  | 0 (Herbicidal ratio of 5% or lower (almost no effect)) | H: Echinochloa crus-galli var. crus-galli, herbicidal effect (criteria 0-5) [1]: 5 (Herbicidal ratio of 90% or more (almost completely withered)); O: Chenopodium album, herbicidal effect grade (Chenopodium album [2]; 320 g/ha): 0 (Herbicidal ratio of 5% or lower (almost no effect)); e: wheat, effect grade on crop (wheat): 3 (Herbicidal ratio of 40% or higher and lower than 70%); N: Amaranthus retroflexus, herbicidal effect grade (Amaranthus retroflexus [4]; 320 g/ha): 4 (Herbicidal ratio of 70% or higher and lower than 90%); Q: Galium spurium, herbicidal effect (criteria 0-5) (Galium spurium): 3 (Herbicidal ratio of 40% or higher and lower than 70%); d: soybean, effect on crop (criteria 0-5) (soybean [5]): 3 (Herbicidal ratio of 40% or higher and lower than 70%); d: soybean, effect grade on crop (soybean [6]): 0 (Herbicidal ratio of 5% or lower (almost no effect)); L: Apera spica-venti, herbicidal effect grade (Apera spica-venti; 320 g/ha): 5 (Herbicidal ratio of 90% or more (almost completely withered)); M: Abutilon theophrasti, herbicidal effect (criteria 0-5) (Abutilon theophrasti): 4 (Herbicidal ratio of 70% or higher and lower than 90%); G: Setaria viridis, herbicidal effect (criteria 0-5) (Setaria viridis [7]): 5 (Herbicidal ratio of 90% or more (almost completely withered)); G: Setaria viridis, herbicidal effect grade (Setaria viridis [8]; 320 g/ha): 5 (Herbicidal ratio of 90% or more (almost completely withered)); f: beet, effect grade on crop (beet): 0 (Herbicidal ratio of 5% or lower (almost no effect)); O: Chenopodium album, herbicidal effect (criteria 0-5) (Chenopodium album [9]): 1 (Herbicidal ratio of 5% or higher and lower than 20%); K: Lolium multiflorum Lam., herbicidal effect grade (Lolium multiflorum Lam.; 320 g/ha): 5 (Herbicidal ratio of 90% or more (almost completely withered)); N: Amaranthus retroflexus, herbicidal effect (criteria 0-5) (Amaranthus retroflexus [10]): 3 (Herbicidal ratio of 40% or higher and lower than 70%)
4 | CCOC(=O)C(CC)(C(C)=O)C1CC(O)=C(c2c(C)cc(C)cc2C)C1=O (stereo not shown) [2-012] | 0 (Herbicidal ratio of 5% or lower (almost no effect)) | 1 (Herbicidal ratio of 5% or higher and lower than 20%) | 0 (Herbicidal ratio of 5% or lower (almost no effect)) | 0 (Herbicidal ratio of 5% or lower (almost no effect)) | 0 (Herbicidal ratio of 5% or lower (almost no effect)) | 0 (Herbicidal ratio of 5% or lower (almost no effect)) | 0 (Herbicidal ratio of 5% or lower (almost no effect)) | 0 (Herbicidal ratio of 5% or lower (almost no effect)) | 0 (Herbicidal ratio of 5% or lower (almost no effect)) | 0 (Herbicidal ratio of 5% or lower (almost no effect)) | 0 (Herbicidal ratio of 5% or lower (almost no effect)) | 0 (Herbicidal ratio of 5% or lower (almost no effect)) | 0 (Herbicidal ratio of 5% or lower (almost no effect)) | 0 (Herbicidal ratio of 5% or lower (almost no effect)) | 0 (Herbicidal ratio of 5% or lower (almost no effect)) | 0 (Herbicidal ratio of 5% or lower (almost no effect)) | 0 (Herbicidal ratio of 5% or lower (almost no effect)) | 0 (Herbicidal ratio of 5% or lower (almost no effect)) | 0 (Herbicidal ratio of 5% or lower (almost no effect)) |  | 
